Results from patent publication US7015329B2 (Janssen Pharmaceutica N. V., priority 2003, dated 2006).
pEC50: −log10 of the molar value.

Experiments:
Format in all cases: cell-based
[1] = molecular target: T1, PPAR alpha (Homo sapiens, UniProt Q07869); assay: Transfection assay for PPAR receptors (GAL4-LBD luciferase reporter), PPAR alpha; details: 18–24 hrs
T1 construct: expressed in transfected cells; host or cells: HEK293
T1 sequence (Q07869 239-466 limits assumed): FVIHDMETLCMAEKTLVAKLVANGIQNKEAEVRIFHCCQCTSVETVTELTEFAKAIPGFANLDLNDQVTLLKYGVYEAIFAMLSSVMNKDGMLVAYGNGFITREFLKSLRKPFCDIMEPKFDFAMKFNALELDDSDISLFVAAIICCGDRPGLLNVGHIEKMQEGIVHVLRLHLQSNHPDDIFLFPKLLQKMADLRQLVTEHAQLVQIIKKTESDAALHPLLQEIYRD
Description: (§1) Transfection Assay Method for PPAR Receptors
(§2) HEK293 cells were grown in DMEM/F12 medium supplemented with 10% FBS and glutamine (Invitrogen) and incubated in a 5% CO2 incubator at 37° C. The cells were co-transfected using DMRIE-C reagent (Invitrogen) in serum free medium (Opti-MEM, Invitrogen) with two mammalian expression plasmids, one containing the DNA sequence coding for the ligand binding domains of either PPARαg or d fused to the yeast GAL4 DNA binding domain and the other containing the promoter sequence of the yeast GAL4 (UAS) fused to the firefly luciferase cDNA reporter. The next day, the medium was changed to DMEM/F12 medium supplemented with 5% charcoal treated serum (Hyclone) and glutamine. After 6 hrs the cells were trypsinized and seeded at a density of 50,000 cells/well into 96 well plates and incubated overnight as above. The cells were then treated with -test compounds or vehicle and incubated for 18–24 hrs as above. Luciferase reporter activity was measured using the Steady-Glo Luciferase Assay Kit from Promega. DMRIE-C Reagent was purchased from GIBCO Cat. No.10459-014. OPTI-MEM I Reduced Serum Medium was purchased from GIBCO (Cat. No. 31985). Steady-Glo Luciferase Assay Kit was purchased from Promega (Part#E254B).
A variety of example compounds have been made and tested, with a range of in vitro results. Below are representative compounds and data; in some cases, where multiple EC50's are shown, multiple measurements were taken. Naturally, different compounds in Formula (I) may have not have activities identical to any one compound below.

[2] = molecular target: T2, PPAR gamma (Homo sapiens, UniProt P37231); assay: Transfection assay for PPAR receptors (GAL4-LBD luciferase reporter), PPAR gamma; details: 18–24 hrs
T2 construct: expressed in transfected cells; host or cells: HEK293
T2 sequence (P37231 238-503 limits assumed): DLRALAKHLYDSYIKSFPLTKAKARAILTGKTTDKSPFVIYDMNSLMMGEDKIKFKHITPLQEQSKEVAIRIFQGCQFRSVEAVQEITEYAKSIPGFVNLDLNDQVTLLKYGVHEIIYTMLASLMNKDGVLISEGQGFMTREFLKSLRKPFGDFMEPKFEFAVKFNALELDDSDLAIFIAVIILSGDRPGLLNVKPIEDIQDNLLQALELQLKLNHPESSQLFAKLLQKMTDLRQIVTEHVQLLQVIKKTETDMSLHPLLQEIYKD
Description: as §1
as §2, with “OPTI-MEM I Reduced Serum Medium was purchased from GIBCO (Cat. No. 31985).” left out

[3] = molecular target: T3, PPAR delta (Homo sapiens, UniProt Q03181); assay: Transfection assay for PPAR receptors (GAL4-LBD luciferase reporter), PPAR delta; details: Table 1; HEK293 cells co-transfected with PPAR LBD-GAL4 and GAL4 (UAS) luciferase reporter, 18–24 hrs
T3 construct: expressed in transfected cells; host or cells: HEK293
T3 sequence (Q03181 211-439 limits assumed): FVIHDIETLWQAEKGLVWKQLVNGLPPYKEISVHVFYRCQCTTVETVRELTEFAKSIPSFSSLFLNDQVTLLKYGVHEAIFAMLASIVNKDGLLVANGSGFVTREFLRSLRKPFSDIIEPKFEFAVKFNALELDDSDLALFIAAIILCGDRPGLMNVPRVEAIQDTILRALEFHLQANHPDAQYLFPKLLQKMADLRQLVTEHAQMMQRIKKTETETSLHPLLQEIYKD
Description: as §1
as §2, with “OPTI-MEM I Reduced Serum Medium was purchased from GIBCO (Cat. No. 31985).” left out

[4] = Table 2, compounds of interest, HEK293 cells, PPAR LBD-GAL4 luciferase reporter
[5] = Table 1, HEK293 cells co-transfected with PPAR LBD-GAL4 and GAL4 (UAS) luciferase reporter

Molecule: Cc1cc(SCc2cc(-c3ccc(C(F)(F)F)cc3)no2)ccc1OCC(=O)O [Compound f, {2-Methyl-4-[3-(4-trifluoromethyl-phenyl)-isoxazol-5-ylmethylsulfanyl]-phenoxy}-acetic acid]
- pEC50 [1, 4]: < 5.52
- pEC50 [2, 4]: < 5.52

Molecule: {2-Methyl-4-[5-(4-trifluoromethyl-phenyl)-pyridin-3-ylmethylsulfanyl]-phenoxy}-acetic acid [Compound e]
- pEC50 [1, 4]: < 5.52

Molecule: Cc1cc(SCc2nsc(-c3ccc(OC(F)(F)F)cc3)n2)ccc1OC(C)(C)C(=O)O [Compound 17, 2-Methyl-2-{2-methyl-4-[5-(4-trifluoromethoxy-phenyl)-[1,2,4]thiadiazol-3-ylmethylsulfanyl]-phenoxy}-propionic acid]
- pEC50 [3]: 7.24
- pEC50 [1, 5]: 6.18

Molecule: Cc1cc(SCc2cc(-c3ccc(C(F)(F)F)cc3)on2)ccc1OCC(=O)O [Compound g, {2-Methyl-4-[5-(4-trifluoromethyl-phenyl)-isoxazol-3-ylmethylsulfanyl]-phenoxy}-acetic acid]
- pEC50 [1, 4]: 5.66
- pEC50 [2, 4]: < 5.52

Molecule: Cc1cc(SCCc2nc(-c3ccc(C(F)(F)F)cc3)ns2)ccc1OC(C)(C)C(=O)O [Compound 28, 2-Methyl-2-(2-methyl-4-{2-[3-(4-trifluoromethyl-phenyl)-[1,2,4]thiadiazol-5-yl]-ethylsulfanyl}-phenoxy)-propionic acid]
- pEC50 [1, 5]: 7.43
- pEC50 [2, 5]: 6.33

Molecule: Cc1cc(SCc2nc(-c3ccc(OC(F)(F)F)cc3)ns2)ccc1OC(C)(C)C(=O)O [Compound 4, 2-Methyl-2-{2-methyl-4-[3-(4-trifluoromethoxy-phenyl)-[1,2,4]thiadiazol-5-ylmethylsulfanyl]-phenoxy}-propionic acid]
- pEC50 [1, 5]: 7.48
- pEC50 [2, 5]: 4.93

Molecule: Cc1cc(SCc2nc(-c3ccc(C(F)(F)F)cc3)ns2)ccc1OCC(=O)O [Compound 1, {2-Methyl-4-[3-(4-trifluoromethyl-phenyl)-[1,2,4]thiadiazol-5-ylmethylsulfanyl]-phenoxy}-acetic acid]
- pEC50 [3]: 8.00
- pEC50 [1, 5]: 6.33

Molecule: Cc1ccc(-c2nsc(CSc3ccc(OC(C)(C)C(=O)O)c(C)c3)n2)cc1C [Compound 11, 2-{4-[3-(3,4-Dimethyl-phenyl)-[1,2,4]thiadiazol-5-ylmethylsultanyl]-2-methyl-phenoxy}-2-methyl-propionic acid]
- pEC50 [3]: 7.03
- pEC50 [1, 5]: 6.94

Molecule: Cc1cc(SCc2cc(-c3ccc(C(F)(F)F)cc3)ns2)ccc1OCC(=O)O [Compound c, {2-Methyl-4-[3-(4-trifluoromethyl-phenyl)-isothiazol-5-ylmethylsulfanyl]-phenoxy}-acetic acid]
- pEC50 [1, 4]: < 6.00
- pEC50 [2, 4]: < 5.52

Molecule: Cc1cc(SCc2cc(-c3ccc(C(F)(F)F)cc3)sn2)ccc1OCC(=O)O [Compound b, {2-Methyl-4-[5-(4-trifluoromethyl-phenyl)-isothiazol-3-ylmethylsulfanyl]-phenoxy}-acetic acid]
- pEC50 [1, 4]: < 5.52
- pEC50 [2, 4]: < 5.52

Molecule: Cc1cc(SCc2nc(-c3ccc(C(F)(F)F)cc3)ns2)ccc1OC(C)(C)C(=O)O [Compound 3, 2-Methyl-2-{2-methyl-4-[3-(4-trifluoromethyl-phenyl)-[1,2,4]thiadiazol-5-ylmethylsulfanyl]-phenoxy}-propionic acid]
- pEC50 [3]: 8.12
- pEC50 [1, 5]: 7.06

Molecule: Cc1cc(OCc2nc(-c3ccc(C(F)(F)F)cc3)ns2)ccc1OC(C)(C)C(=O)O [Compound 23, 2-Methyl-2-{2-methyl-4-[3-(4-trifluoromethyl-phenyl)-[1,2,4]thiadiazol-5-ylmethoxy]-phenoxy}-propionic acid]
- pEC50 [1, 5]: 7.03
- pEC50 [2, 5]: < 5.52

Molecule: CC(C)(Oc1ccc(SCc2nc(-c3ccc(C(F)(F)F)cc3)ns2)cc1)C(=O)O [Compound 2, 2-Methyl-2-{4-[3-(4-trifluoromethyl-phenyl)-[1,2,4]thiadiazol-5-ylmethylsulfanyl]-phenoxy}-propionic acid]
- pEC50 [3]: 7.70
- pEC50 [1, 5]: 6.81
